Measured values reported in patent US8092816B2, “Insecticidal compositions for control of general household pests” (priority 2004, dated 2012).

Legend:
[1] = system: German cockroach; experiment: Example 2: German cockroach knockdown and mortality, bifenthrin and imidacloprid; assay type: in vivo
Source text: (§1) The following examples further illustrate the present invention, but, of course, should not be construed as in any way limiting its scope. The examples set forth certain biological data illustrating the efficacy of the compositions of the present invention in controlling general household pests. Each example embodies a separate test wherein the pests were randomly selected from a population at a random age. As a result, from example to example, the ages of the pests can be very different. This age difference potentially translates to different baselines for each example. Therefore, data should only be compared within the example and not from example to example due to the differences in age of the pests from example to example. Unless otherwise indicated, all parts, percentages, and the like are by weight. The spray chamber used in the examples was approximately 76 inches tall, 73 inches long and 31 inches deep with an adjustable shelf (approximately 22 inches deep) and a movable spray nozzle. The spray chambers were calibrated to deliver a volume of approximately 1 gallon of liquid per 1000 square feet of area at about 14 pounds per square inch of pressure. A DeVilbiss hand held sprayer (Atomizer model 152) manufactured by DeVilbiss located in Glendale Heights, Ill. was used in testing house flies and mosquitoes. The DeVilbiss was used to apply approximately 3-5 milliliters of product at about 10 pounds per square inch.
(§2) The compositions of the present invention were tested for German cockroach activity in the following manner:
(§3) Test compositions made up of TALSTARONE® MULTI-INSECTICIDE and a wettable powder of imidacloprid (MERIT) in distilled water were prepared that provided appropriate rates of application of combinations of bifenthrin and imidacloprid, as well as bifenthrin and imidacloprid alone.
(§4) The spray chamber was then calibrated to deliver the treatment solution at the desired volume and pressure over the desired area on the chamber shelf. Spray chamber shelf height was adjusted to approximately 18 inches from the spray tip. The shelf was then covered with aluminum foil and the center of the shelf from front-to-back and end-to-end was determined. A desired number of 4.0″ sieve circles were marked on the aluminum foil with a permanent marker. The inside of a desired number of PVC rings were coated with a petroleum jelly/mineral oil mixture (1:2 ratio). The PVC rings were place on the sieve circles. 10 male German cockroaches were placed inside each PVC ring. The sprayer was activated and the test compound was applied to each PVC ring interior. German cockroach knockdown and mortality were measured.

[2] = system: Oriental cockroach; experiment: Example 4: Oriental cockroach knockdown and mortality, bifenthrin and imidacloprid; assay type: in vivo
Source text: as §1
The compositions of the present invention were tested for Oriental cockroach activity in the following manner:
as §3
as §4, with “Oriental” for “German”

[3] = system: Red Imported Fire Ant; experiment: Example 5: red imported fire ant knockdown and mortality, bifenthrin and imidacloprid; assay type: in vivo, Solenopsis invicta
Source text: as §1
The compositions of the present invention were tested for red imported fire ant activity in the following manner:
as §3
The spray chamber was then calibrated to deliver the treatment solution at the desired volume and pressure over the desired area on the chamber shelf. Spray chamber shelf height was adjusted to approximately 18 inches from the spray tip. The shelf was then covered with aluminum foil and the center of the shelf from front-to-back and end-to-end was determined. The red imported fire ants to be treated were collected and placed in screened 16 oz paper cups. The paper cups were placed onto the aluminum foil on the spray chamber shelf. The sprayer was activated and the test compound was applied to each paper cup interior. Red imported fire ant knockdown and mortality were measured.

[4] = system: German cockroach; experiment: Example 8: German cockroach mortality, bifenthrin and thiamethoxam; assay type: in vivo
Source text: as §1, §2
Test compositions made up of TALSTARONE® MULTI-INSECTICIDE and a water dispersible granular of thiamethoxam (CENTRIC) in distilled water were prepared that provided appropriate rates of application of combinations of bifenthrin and thiamethoxam, as well as bifenthrin and thiamethoxam alone.
as §4, with “cockroach” for “cockroach knockdown and”, “mortality was” for “mortality were”

Cc1c(COC(=O)[C@@H]2[C@H](/C=C(\Cl)C(F)(F)F)C2(C)C)cccc1-c1ccccc1 (racemic) [A, 2-methylbiphenyl-3-ylmethyl (Z)-(1RS)-cis-3-(2-chloro-3,3,3-trifluoroprop-1-enyl)-2,2-dimethylcyclopropanecarboxylate]
Knockdown Rate @ 10 minute ([1]; 200 PPM, 0.02% by weight): 0%
Knockdown Rate @ 15 minute ([1]; 200 PPM, 0.02% by weight): 3%
Knockdown Rate @ 30 minutes ([1]; 200 PPM, 0.02% by weight): 45%
Mortality Rate @ 60 minutes ([1]; 200 PPM, 0.02% by weight): 100%
Mortality Rate @ 120 minutes ([1]; 200 PPM, 0.02% by weight): 100%
Mortality Rate @ 1 day ([1]; 200 PPM, 0.02% by weight): 100%
Knockdown Rate @ 10 minute ([1]; 600 PPM, 0.06% by weight): 0%
Knockdown Rate @ 15 minute ([1]; 600 PPM, 0.06% by weight): 8%
Knockdown Rate @ 30 minutes ([1]; 600 PPM, 0.06% by weight): 60%
Mortality Rate @ 60 minutes ([1]; 600 PPM, 0.06% by weight): 100%
Mortality Rate @ 120 minutes ([1]; 600 PPM, 0.06% by weight): 100%
Mortality Rate @ 1 day ([1]; 600 PPM, 0.06% by weight): 100%
Knockdown Rate @ 15 minute ([2]; 10 PPM, 0.001% by weight): 0%
Knockdown Rate @ 30 minute ([2]; 10 PPM, 0.001% by weight): 0%
Mortality Rate @ 60 minute ([2]; 10 PPM, 0.001% by weight): 0%
Mortality Rate @ 120 minute ([2]; 10 PPM, 0.001% by weight): 0%
Mortality Rate @ 4 hours ([2]; 10 PPM, 0.001% by weight): 0%
Mortality Rate @ 1 day ([2]; 10 PPM, 0.001% by weight): 15%
Mortality Rate @ 2 days ([2]; 10 PPM, 0.001% by weight): 15%
Knockdown Rate @ 15 minute ([2]; 50 PPM, 0.005% by weight): 0%
Knockdown Rate @ 30 minute ([2]; 50 PPM, 0.005% by weight): 0%
Mortality Rate @ 60 minute ([2]; 50 PPM, 0.005% by weight): 5%
Mortality Rate @ 120 minute ([2]; 50 PPM, 0.005% by weight): 5%
Mortality Rate @ 4 hours ([2]; 50 PPM, 0.005% by weight): 30%
Mortality Rate @ 1 day ([2]; 50 PPM, 0.005% by weight): 70%
Mortality Rate @ 2 days ([2]; 50 PPM, 0.005% by weight): 70%
Knockdown Rate @ 5 minute ([3]; 10 PPM, 0.001% by weight): 30%
Knockdown Rate @ 10 minute ([3]; 10 PPM, 0.001% by weight): 93%
Knockdown Rate @ 15 minute ([3]; 10 PPM, 0.001% by weight): 95%
Knockdown Rate @ 30 minutes ([3]; 10 PPM, 0.001% by weight): 100%
Mortality Rate @ 60 minutes ([3]; 10 PPM, 0.001% by weight): 65%
Mortality Rate @ 120 minutes ([3]; 10 PPM, 0.001% by weight): 100%
Mortality Rate @ 4 hours ([3]; 10 PPM, 0.001% by weight): 100%
Mortality Rate @ 1 day ([3]; 10 PPM, 0.001% by weight): 100%
Knockdown Rate @ 5 minute ([3]; 50 PPM, 0.005% by weight): 10%
Knockdown Rate @ 10 minute ([3]; 50 PPM, 0.005% by weight): 70%
Knockdown Rate @ 15 minute ([3]; 50 PPM, 0.005% by weight): 95%
Knockdown Rate @ 30 minutes ([3]; 50 PPM, 0.005% by weight): 100%
Mortality Rate @ 60 minutes ([3]; 50 PPM, 0.005% by weight): 100%
Mortality Rate @ 120 minutes ([3]; 50 PPM, 0.005% by weight): 100%
Mortality Rate @ 4 hours ([3]; 50 PPM, 0.005% by weight): 100%
Mortality Rate @ 1 day ([3]; 50 PPM, 0.005% by weight): 100%
Mortality Rate @ 60 minutes ([4]; 10 PPM, 0.001% by weight): 8%
Mortality Rate @ 120 minutes ([4]; 10 PPM, 0.001% by weight): 33%
Mortality Rate @ 1 day ([4]; 10 PPM, 0.001% by weight): 35%
Mortality Rate @ 2 day ([4]; 10 PPM, 0.001% by weight): 60%
Mortality Rate @ 4 days ([4]; 10 PPM, 0.001% by weight): 98%
Mortality Rate @ 60 minutes ([4]; 50 PPM, 0.005% by weight): 15%
Mortality Rate @ 120 minutes ([4]; 50 PPM, 0.005% by weight): 48%
Mortality Rate @ 1 day ([4]; 50 PPM, 0.005% by weight): 58%
Mortality Rate @ 2 day ([4]; 50 PPM, 0.005% by weight): 100%
Mortality Rate @ 4 days ([4]; 50 PPM, 0.005% by weight): 100%
